Legend:
Assay in all cases: relative viability (nuclei count vs DMSO), 5 days (fraction); higher = more cells survive
[1] = tested on: NCI-H596
In short: (§1)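 Lung cancer cell lines in 1536-well plates were dosed by pin tool the day after seeding, either with one drug alone or with a fixed anchor-drug dose plus five library-drug doses (not always all listed) in √10 steps. After 5 days, cells were fixed and their nuclei stained in one step (final 0.05% Triton X-100, 1% formaldehyde, 1 ug/ml Hoechst), then counted on 4× images. Relative viability is the nuclei count in treated wells divided by that in vehicle wells. Values are medians of duplicate plates.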

[2] = tested on: A549
In short: as §1

[3] = tested on: SK-LU-1
In short: as §1

[4] = tested on: PC-14
In short: as §1

[5] = tested on: NCI-H1944
In short: as §1

[6] = tested on: NCI-H1666
In short: as §1

[7] = tested on: NCI-H661
In short: as §1

[8] = tested on: NCI-H1623
In short: as §1

Cc1csc(=NC2CCCCC2)n1/N=C/c1ccc(O)c(O)c1O [MIM1] + N=C(N)NC(=N)NCCc1ccccc1 [Phenformin] (partner 250 µM) was tested, and the relative viability ([1]; first compound 0.2 µM) was 0.705, the relative viability ([1]; first compound 0.6325 µM) was 0.829 and the relative viability ([1]; first compound 2 µM) was 0.733. The relative viability ([1]; first compound 6.325 µM) was 0.676, the relative viability ([1]; first compound 20 µM) was 0.773 and the relative viability ([2]; first compound 0.2 µM) was 0.164. It also gave a relative viability ([2]; first compound 0.6325 µM) of 0.108, a relative viability ([2]; first compound 2 µM) of 0.144 and a relative viability ([2]; first compound 6.325 µM) of 0.108. The relative viability ([2]; first compound 20 µM) was 0.0481, the relative viability ([3]; first compound 0.2 µM) was 0.533 and the relative viability ([3]; first compound 0.6325 µM) was 0.579. The relative viability ([3]; first compound 2 µM) was 0.617, the relative viability ([3]; first compound 6.325 µM) was 0.405 and the relative viability ([3]; first compound 20 µM) was 0.393. It also gave a relative viability ([4]; first compound 0.2 µM) of 0.662, a relative viability ([4]; first compound 0.6325 µM) of 0.575 and a relative viability ([4]; first compound 2 µM) of 0.558. For the same molecule, the relative viability ([4]; first compound 6.325 µM) was 0.328, the relative viability ([4]; first compound 20 µM) was 0.237 and the relative viability ([5]; first compound 0.2 µM) was 0.208. For the same molecule, the relative viability ([5]; first compound 0.6325 µM) was 0.206, the relative viability ([5]; first compound 2 µM) was 0.149 and the relative viability ([5]; first compound 6.325 µM) was 0.163. For the same molecule, the relative viability ([5]; first compound 20 µM) was 0.104, the relative viability ([6]; first compound 0.2 µM) was 0.578 and the relative viability ([6]; first compound 0.6325 µM) was 0.607. The relative viability ([6]; first compound 2 µM) was 0.517, the relative viability ([6]; first compound 6.325 µM) was 0.456 and the relative viability ([6]; first compound 20 µM) was 0.26. For the same molecule, the relative viability ([7]; first compound 0.2 µM) was 0.254, the relative viability ([7]; first compound 0.6325 µM) was 0.28 and the relative viability ([7]; first compound 2 µM) was 0.274. The relative viability ([7]; first compound 6.325 µM) was 0.26, the relative viability ([7]; first compound 20 µM) was 0.24 and the relative viability ([8]; first compound 0.2 µM) was 0.561. It also gave a relative viability ([8]; first compound 0.6325 µM) of 0.428, a relative viability ([8]; first compound 2 µM) of 0.587 and a relative viability ([8]; first compound 6.325 µM) of 0.562. For the same molecule, the relative viability ([8]; first compound 20 µM) was 0.374.
